{"source": "ChEMBL document CHEMBL1146218", "about": "“Highly brominated mono- and bis-phenols from the marine red alga Symphyocladia latiuscula with radical-scavenging activity” (J Nat Prod, 2007)"}
{"assay": "DPPH radical scavenging activity", "type": "functional", "units": {"IC50": "µM"}}
{"smiles": "Oc1c(O)c(Br)c(COCc2c(Br)c(O)c(O)c(Br)c2Br)c(Br)c1Br", "IC50": 8.5}
{"smiles": "Cc1c(Br)c(O)c(O)c(Br)c1Br", "IC50": 14}
{"smiles": "COCc1c(Br)c(O)c(O)c(Br)c1Br", "IC50": 15.5}
{"smiles": "O=C1CCCN1Cc1c(Br)c(O)c(O)c(Br)c1Br", "IC50": 18.5}
{"smiles": "COCc1c(Br)c(O)c(O)c(Br)c1Cc1c(Br)c(O)c(O)c(Br)c1Br", "IC50": 10.5}
{"smiles": "CS(=O)(=O)Cc1c(Br)c(O)c(O)c(Br)c1Br", "IC50": 24}
{"smiles": "O=Cc1c(Br)c(O)c(O)c(Br)c1Br", "IC50": 24.7}
{"smiles": "Oc1c(O)c(Br)c(Cc2c(Br)c(O)c(O)c(Br)c2Br)c(Br)c1Br", "IC50": 8.1}
{"smiles": "Oc1c(O)c(Br)c(CCc2c(Br)c(O)c(O)c(Br)c2Br)c(Br)c1Br", "IC50": 10.2}
{"smiles": "Cc1cc(C(C)(C)C)c(O)c(C(C)(C)C)c1", "note": "[BUTYLATED HYDROXYTOLUENE]", "IC50": 81.8}
